c1ccc(P(c2ccccc2)c2ccccc2)cc1
Conditions | solubility (mole fraction)
in acetone, 303.2 K | 0.089
in acetone, 308.1 K | 0.12
in acetone, 313.4 K | 0.14
in acetone, 318.2 K | 0.19
in acetone, 323.5 K | 0.25
in acetone, 327.8 K | 0.33
in acetone, 333.1 K | 0.42
in benzene, 303.3 K | 0.069
in benzene, 308.6 K | 0.095
in benzene, 312.9 K | 0.12
in benzene, 318.1 K | 0.16
in benzene, 323.2 K | 0.22
in benzene, 328.1 K | 0.28
in benzene, 333.2 K | 0.37
in ethanol, 303.5 K | 0.0095
in ethanol, 308.3 K | 0.012
in ethanol, 313.3 K | 0.016
in ethanol, 318.6 K | 0.022
in ethanol, 323.2 K | 0.028
in ethanol, 327.9 K | 0.038
in ethanol, 333 K | 0.05
in isopropanol, 303.1 K | 0.0077
in isopropanol, 308.4 K | 0.01
in isopropanol, 313.3 K | 0.014
in isopropanol, 318.2 K | 0.019
in isopropanol, 322.9 K | 0.025
in isopropanol, 328.4 K | 0.033
in isopropanol, 333.2 K | 0.045
in toluene, 302.4 K | 0.05
in toluene, 308.2 K | 0.07
in toluene, 313.7 K | 0.1
in toluene, 318.2 K | 0.13
in toluene, 323.3 K | 0.18
in toluene, 328.3 K | 0.24
in toluene, 333.4 K | 0.32
